US20090197967A1, “COMPOSITIONS AND METHODS FOR TREATMENT OF OPHTHALMIC DISEASES AND DISORDERS” (priority 2006, published 2009)

What was measured:
[1] = target: T1, visual cycle trans-cis isomerohydrolase (isomerase) (Bos taurus, UniProt Q28175); assay: Isomerase reaction: inhibition of isomerase by retinylamine derivative compounds (bovine RPE microsomes, HPLC read-out); assay type: biochemical; details: 5 min preincubation at 37° C., 10 μM all-trans-retinol, 6 μM apo-CRALBP, 30 minutes
T1 construct: Bovine Retinal Pigment Epithelium (RPE) microsome membranes were the source of visual cycle trans-cis isomerohydrolase (isomerase); from tissue; host or cells: bovine retinal pigment epithelium (RPE) microsome membranes; CRALBP made in E. coli
T1 sequence (Q28175 2-533 limits assumed): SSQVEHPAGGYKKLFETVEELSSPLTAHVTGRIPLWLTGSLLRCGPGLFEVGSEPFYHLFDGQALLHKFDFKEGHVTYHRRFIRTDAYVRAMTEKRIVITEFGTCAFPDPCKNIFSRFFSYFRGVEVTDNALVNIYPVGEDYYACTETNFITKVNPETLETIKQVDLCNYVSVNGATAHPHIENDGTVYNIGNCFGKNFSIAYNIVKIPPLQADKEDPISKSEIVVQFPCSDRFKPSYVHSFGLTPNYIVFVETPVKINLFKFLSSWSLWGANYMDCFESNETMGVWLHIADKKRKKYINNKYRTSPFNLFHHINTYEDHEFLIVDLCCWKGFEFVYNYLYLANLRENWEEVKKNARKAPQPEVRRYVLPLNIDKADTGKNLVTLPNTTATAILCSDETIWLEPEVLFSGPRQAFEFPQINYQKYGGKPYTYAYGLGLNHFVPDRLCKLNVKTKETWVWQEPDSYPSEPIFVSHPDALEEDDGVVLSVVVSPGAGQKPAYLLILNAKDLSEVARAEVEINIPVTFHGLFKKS
Procedure: The capability of several retinylamine compounds to inhibit the activity of visual cycle trans-cis isomerohydrolase (isomerase) was determined.
Isomerase and LRAT reaction—The isomerase reaction was performed essentially as described previously (Stecher et al., J Biol Chem 274:8577-85 (1999); see also Golczak et al., supra). Bovine Retinal Pigment Epithelium (RPE) microsome membranes were the source of visual cycle trans-cis isomerohydrolase (isomerase).
RPE microsome membrane extracts may be purchased or prepared according to methods practiced in the art and stored at −80° C. Crude RPE microsome extracts were thawed in a 37° C. water bath, and then immediately placed on ice. 50 ml crude RPE microsomes were placed into a 50 ml Teflon-glass homogenizer (Fisher Scientific, catalog no. 0841416M) on ice, powered by a hand-held DeWalt drill, and homogenized ten times up and down on ice under maximum speed. This process was repeated until the crude RPE microsome solution was homogenized. The homogenate was then subjected to centrifugation (50.2 Ti rotor (Beckman, Fullerton, Calif.), 13,000 RPM; 15360 Rcf) for 15 minutes at 4° C. The supernatant was collected and subjected to centrifugation a5 42,000 RPM (160,000 Rcf, 50.2 Ti rotor) for 1 hour at 4° C. The supernatant was removed, and the pellets were suspended in 12 ml (final volume) cold 10 mM MOPS buffer, pH 7.0. The resuspended RPE membranes in 5 ml aliquots were homogenized in a glass-to-glass homogenizer (Fisher Scientific, catalog no. K885500-0021) to high homogeneity. Protein concentration was quantified using the BCA protein assay according to the manufacturer's protocol (Pierce, Rockford, Ill.; catalog no. 23227). The homogenized RPE preparations were stored at −80° C.
Recombinant human apo cellular retinaldehyde-binding protein (CRALBP) was cloned and expressed according to standard methods in the molecular biology art (see Crabb et al., Protein Science 7:746-57 (1998); Crabb et al., J. Biol. Chem. 263:18688-92 (1988)). Briefly, total RNA was prepared from confluent ARPE19 cells (American Type Culture Collection, Manassas, Va.), cDNA was synthesized using an oligo(dT)12-18 primer, and then DNA encoding CRALBP was amplified by two sequential polymerase chain reactions (see Crabb et al., J. Biol. Chem. 263:18688-92 (1988); Intres, et al., J. Biol. Chem. 269:25411-18 (1994); GenBank Accession No. L34219.1). The PCR product was sub-cloned into pTrcHis2-TOPO TA vector according to the manufacturer's protocol (Invitrogen Inc., Carlsbad, Calif.; catalog no. K4400-01), and then the sequence was confirmed according to standard nucleotide sequencing techniques. Recombinant 6×His-tagged human CRALBP was expressed in One Shot TOP 10 chemically competent E. coli cells (Invitrogen), and the recombinant polypeptide was isolated from E. coli cell lysates by nickel affinity chromatography using Ni Sepharose XKI 6-20 columns for HPLC (Amersham Bioscience, Pittsburgh, Pa.; catalog no. 17-5268-02). The purified 6×His-tagged human CRALBP was dialyzed against 10 mM bis-tris-Propane (BTP) and analyzed by SDS-PAGE. The molecular weight of the recombinant human CRALBP was approximately 39 kDal.
The isomerase assay was performed in 10 mM BTP buffer, pH 7.5, 1% BSA, containing 1 mM ATP and 6 μM apo-CRALBP (cellular retinaldehyde-binding protein). To investigate inhibition properties of retinylamine derivative compounds, RPE microsomes were preincubated for 5 min in 37° C. with a compound in 10 mM BTP buffer, pH 7.5, 1% BSA, and 1 mM ATP prior to addition of apo-CRALBP and 10 μM all-trans-retinol. Retinylamine derivative compounds were delivered to the reaction mixture in 2 μl ethanol. If the compounds were not soluble in ethanol, DMF was added until the compound was in solution. The same volume of ethanol and/or DMF was added to the control reaction (absence of test compound). […]

RAR = details: at micromolar concentrations; cited from earlier work
RXR = details: at micromolar concentrations; cited from earlier work

Row | SMILES | IC50 [1] [µM] | interaction with RAR (RAR) | interaction with RXR (RXR)
1 | CC1=C(/C=C/C(C)=C2C=C/C(=C/CN)CCC/2)C(C)(C)CCC1 [Cmpd 1] | 3.1 |  | 
2 | CC1=C(/C=C/C(C)=C2C=C/C(=C/CN)CC/2)C(C)(C)CCC1 [Cmpd 2] | 0.55 |  | 
3 | CC1=C(/C=C/C(C)=C/C=C/C(C)=C/CN)C(C)(C)CCC1 [Cmpd 3] | 0.7 |  | 
4 | CC1=C(/C=C/C(C)=C/C=C/CN)C(C)(C)CCC1 [Cmpd 4] | 5.8 |  | 
5 | CC(=CCCCCN)/C=C/C1=C(C)CCCC1(C)C [Cmpd 5] | 1.7 |  | 
6 | CC1=C(/C=C/C(C)=C/CN)C(C)(C)CCC1 [Cmpd 7] | 8.4 |  | 
7 | CC1=C(/C=C/C(C)=C/C=C\CCCN)C(C)(C)CCC1 [Cmpd 8] | 0.6 |  | 
8 | CC1=C(/C=C/C(C)=C/C=C/CCCN)C(C)(C)CCC1 [Cmpd 9] | 6 |  | 
9 | CC1=C(/C=C/C(C)=C/C=C/CCCCN)C(C)(C)CCC1 [Cmpd 10] | 14 |  | 
10 | CC1=C(/C=C/C(C)=C/C=C/C(C)=C/CN)C(C)(C)CCC1OCc1ccccc1 (stereo not drawn) [Cmpd 11] | 17 |  | 
11 | CC1=C(/C=C/C(C)=C/C=CCCCCCCN)C(C)(C)CCC1 [Cmpd 12] | 25 |  | 
12 | CC1=C(/C=C/C(C)=C/C=C/CCCCCCN)C(C)(C)CCC1 [Cmpd 13] | 200 |  | 
13 | CC1=C(/C=C/C(C)N)C(C)(C)CCC1 (stereo not drawn) [Cmpd 14] | 80 |  | 
14 | CC1=C(/C=C/C(C)=C/C=C/C(C)=C/CN)C(C)(C)CCC1 [Ret-NH2, retinylamine] |  | does not interact | does not interact
